Patent US8143254B2, “Methods for modulating ion channels” (Cornell Research Foundation, Inc., priority 2005, dated 2012)
Changes are numbered by the printed parent chain. “And” between values parts separate entries of the source, which are not always exact repeats. Equal entries are not always repeated. Blank lines part the entries; values can stand above or below the compound they belong to.

Key:
Format in all cases: cell-based
Δ1-28 Kv3.4 channels = molecular target: T1, Δ1-28 Kv3.4 channels (Homo sapiens, UniProt Q03721); assay: TEVC current-voltage relationship of Δ1-28 Kv3.4 in Xenopus oocytes; conditions: 1 mM
T1 construct: expressed in transfected cells; host or cells: Xenopus oocytes (cRNA injection)
T1 sequence (Q03721 29-635): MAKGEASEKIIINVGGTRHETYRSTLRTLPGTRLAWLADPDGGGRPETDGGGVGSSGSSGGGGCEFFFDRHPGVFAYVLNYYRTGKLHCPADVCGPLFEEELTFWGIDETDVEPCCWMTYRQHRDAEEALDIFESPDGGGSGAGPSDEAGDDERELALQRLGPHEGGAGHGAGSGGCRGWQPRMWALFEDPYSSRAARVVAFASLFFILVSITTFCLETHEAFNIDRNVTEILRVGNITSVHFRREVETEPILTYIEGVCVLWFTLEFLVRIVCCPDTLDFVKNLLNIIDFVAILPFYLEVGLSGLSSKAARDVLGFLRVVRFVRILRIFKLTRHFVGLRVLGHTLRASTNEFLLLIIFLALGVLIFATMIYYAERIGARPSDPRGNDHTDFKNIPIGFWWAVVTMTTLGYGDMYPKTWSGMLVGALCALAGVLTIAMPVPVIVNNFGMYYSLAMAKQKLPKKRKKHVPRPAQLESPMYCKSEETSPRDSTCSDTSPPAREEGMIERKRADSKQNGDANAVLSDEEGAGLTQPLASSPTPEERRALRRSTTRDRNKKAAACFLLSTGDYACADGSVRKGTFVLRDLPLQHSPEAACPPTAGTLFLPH
Protocol: FIG. 6. Opening and block of Kv3.4 by two didabco compounds show voltage-dependency. Normalized I/V relationship for Δ1-28 Kv3.4 currents in oocytes in the absence (control) or presence as indicated of 1 mM JC279.3a or JC638.2a. Peak currents during 2 s pulses to voltages between −80 and +60 mV (protocol upper left insert) were recorded, before and after drug was washed in during successive 0.1 Hz, 2 s pulses from −80 to 0 mV until equilibrium block or opening was observed. Points are means from n=3-16 oocytes; error bars indicate SEM.
Whole-cell two-electrode voltage-clamp (TEVC) recordings were performed on X laevis oocytes expressing cloned Kv2.1, Kv3.4 or Kv4.2 using a Warner OC-725C amplifier and pClamp9 (Axon Instruments, Foster City, Calif.) software. Oocytes were bathed in a small-volume Warner oocyte bath and viewed with a Fisher dissection microscope. Bath solution for whole-cell oocyte recordings was (in mM): 96 NaCl, 4 KCl, 0.7 MgCl2, 1 CaCl2, 10 HEPES (pH 7.4); whole-cell oocyte TEVC pipettes were of 0.2-2 M resistance when filled with 3 M KCl. Experiments were performed 24-48 hours after cRNA injection. For assessment of current-voltage relationships in the absence or presence of dabco derivatives, oocytes were held at −80 mV, stepped for 2 seconds at voltages between −80 mV and +60 mV in 20 mV steps (Kv2.1) or between −80 and +50 mV in 10 mV steps (Kv3.4), then held for 500 ms at −40 mV before returning to the holding potential. For assessment of block during wash-in of dabco derivatives at a single voltage, oocytes were held at −80 mV, and repetitively stepped to 0 mV for 2 s with an interpulse interval of 10 s or 60 s as indicated. A range of concentrations of dabco or dabco derivatives were washed in via the bath solution during repetitive single-voltage pulses (after an initial period of 5 pulses with control solution to ensure current stabilization) until equilibrium block was achieved, to establish dose-responses. Inhibited currents are compared to the current at the end of 5-pulse control period, thus some bar graphs show ‘control’ current values slightly less than 1, and with an error bar, to show how much currents deviate in the absence of drug. Washout was performed after the highest concentration of blocker was washed in. […]
To investigate the mechanism of Kv channel block or opening by didabco compounds, the current-voltage relationship (I/V curve) of Δ1-28 Kv3.4 channels expressed in Xenopus oocytes was assessed using TEVC recording in the absence and presence of a didabco opener (JC279.3a, the 10 CH2-group didabco from FIG. 3) or a didabco blocker (JC638.2a, the para didabco from FIG. 4).

Kv2.1-K356C = molecular target: T2, Kv2.1-K356C (Rattus norvegicus, UniProt P15387, K360C); assay: Cysteine protection experiments, K356C variant of Kv2.1 in oocytes; conditions: K356C mutant
T2 construct: expressed in transfected cells; host or cells: Xenopus laevis oocytes (cRNA from pGA1)
T2 sequence (P15387 1-857 K360C): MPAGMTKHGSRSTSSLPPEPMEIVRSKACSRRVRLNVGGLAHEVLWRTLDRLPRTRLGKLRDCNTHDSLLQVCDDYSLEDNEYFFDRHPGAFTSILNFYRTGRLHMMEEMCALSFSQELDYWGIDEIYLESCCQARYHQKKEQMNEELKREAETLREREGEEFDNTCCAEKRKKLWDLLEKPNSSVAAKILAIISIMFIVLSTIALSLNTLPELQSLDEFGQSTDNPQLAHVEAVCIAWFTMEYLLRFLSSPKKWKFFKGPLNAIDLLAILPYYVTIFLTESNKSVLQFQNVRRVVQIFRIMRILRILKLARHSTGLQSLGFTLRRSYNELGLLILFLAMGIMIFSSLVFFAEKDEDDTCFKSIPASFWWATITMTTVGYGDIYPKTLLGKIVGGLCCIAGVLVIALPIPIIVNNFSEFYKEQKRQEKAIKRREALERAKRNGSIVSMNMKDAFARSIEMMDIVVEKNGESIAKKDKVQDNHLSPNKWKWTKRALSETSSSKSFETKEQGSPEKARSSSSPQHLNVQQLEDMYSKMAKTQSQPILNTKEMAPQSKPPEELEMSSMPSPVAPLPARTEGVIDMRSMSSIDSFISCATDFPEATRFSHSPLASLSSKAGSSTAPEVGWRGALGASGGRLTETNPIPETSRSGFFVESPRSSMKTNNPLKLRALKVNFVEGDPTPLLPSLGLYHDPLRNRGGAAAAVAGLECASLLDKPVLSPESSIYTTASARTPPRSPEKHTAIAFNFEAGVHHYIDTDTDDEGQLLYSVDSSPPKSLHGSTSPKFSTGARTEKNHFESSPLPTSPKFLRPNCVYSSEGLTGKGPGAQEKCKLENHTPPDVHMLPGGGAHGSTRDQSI
Excerpt: (§1) Kv2.1 mutants were constructed using the QuickChange Multi Site-Directed Mutagenesis Kit (Stratagene, La Jolla, Calif.). Mutant Kv2.1 genes (in the pGA1 oocyte expression vector for oocyte expression) were sequenced in their entirety to confirm appropriate mutations and check for inadvertent mutations, and then subcloned into a wild-type pGA1 backbone. For oocyte expression, Kv3.4 was in pBF1, Kv4.2 was in pRAT. cRNA transcripts were produced from SacII-linearized (Kv2.1), Mlullinearized (Kv3.4) and Not1-linearized (Kv4.2) DNA templates using the T3 (Kv2.1), SP6 (Kv3.4) and T7 (Kv4.2) mMessage mMachine kits (Ambion, Austin, Tex.). cRNA was quantified by spectrophotometry and its size integrity verified by gel electophoresis. Defolliculated stage V and VI Xenopus laevis oocytes (purchased from Nasco, Grand Island, N.Y.) were injected with 5 ng of cRNA encoding Kv2.1, Kv3.4 or Kv4.2. Chinese Hamster Ovary (CHO) cells were transfected with 0.25 μg Kv2.1 cDNA, 2 μg blank plasmid and 2 μg Green fluorescent Protein in pBOB using Supetfect transfection reagent (Qiagen) 24 hours before whole-cell voltage clamp studies.
Whole-cell two-electrode voltage-clamp (TEVC) recordings were performed on X laevis oocytes expressing cloned Kv2.1, Kv3.4 or Kv4.2 using a Warner OC-725C amplifier and pClamp9 (Axon Instruments, Foster City, Calif.) software. Oocytes were bathed in a small-volume Warner oocyte bath and viewed with a Fisher dissection microscope. Bath solution for whole-cell oocyte recordings was (in mM): 96 NaCl, 4 KCl, 0.7 MgCl2, 1 CaCl2, 10 HEPES (pH 7.4); whole-cell oocyte TEVC pipettes were of 0.2-2 M resistance when filled with 3 M KCl. Experiments were performed 24-48 hours after cRNA injection. For assessment of current-voltage relationships in the absence or presence of dabco derivatives, oocytes were held at −80 mV, stepped for 2 seconds at voltages between −80 mV and +60 mV in 20 mV steps (Kv2.1) or between −80 and +50 mV in 10 mV steps (Kv3.4), then held for 500 ms at −40 mV before returning to the holding potential. For assessment of block during wash-in of dabco derivatives at a single voltage, oocytes were held at −80 mV, and repetitively stepped to 0 mV for 2 s with an interpulse interval of 10 s or 60 s as indicated. A range of concentrations of dabco or dabco derivatives were washed in via the bath solution during repetitive single-voltage pulses (after an initial period of 5 pulses with control solution to ensure current stabilization) until equilibrium block was achieved, to establish dose-responses. Inhibited currents are compared to the current at the end of 5-pulse control period, thus some bar graphs show ‘control’ current values slightly less than 1, and with an error bar, to show how much currents deviate in the absence of drug. Washout was performed after the highest concentration of blocker was washed in. In cases where washout was achieved, only those recordings in which current returned to within 10% of original current level were used for construction of dose-response curves. For cysteine protection experiments using the K356C variant of Kv2.1, a dabco derivative (JC638.2a) was washed in to equilibrium block, followed by wash-in of a solution containing both JC638.2a and MTSET until no further changes in current were seen; following this the solution was washed out with standard bath solution. As controls for this protection analysis, JC638.2a or MTSET were washed in alone until equilibrium block, then washed out.

[1] = molecular target: T3, Kv2.1 channels expressed in CHO cells (Rattus norvegicus, UniProt P15387); assay: Whole-cell voltage clamp of CHO cells transfected with Kv2.1; conditions: 20 mM, 0 mV
T3 construct: expressed in transfected cells; host or cells: CHO cells (transient, co-transfected with GFP plasmid)
T3 sequence (P15387 1-857): T2 sequence (P15387 1-857 K360C) with C360K
Excerpt: as §1
For whole-cell voltage clamp studies of CHO cells, bath solution was (in mM): 135 NaCl, 5 KCl, 1.2 MgCl2, 5 HEPES, 2.5 CaCl2, and 10 D-glucose, pH 7.4. Pipettes were 3-5 MQ resistance when filled with intracellular solution containing (in mM): 10 NaCl, 117 KCl, 2 MgCl2, 11 HEPES, 11 EGTA, and 1 CaCl2, pH 7.2. For experiments with extracellular drug application, cells were held at −80 mV and subjected to 2 sec test pulses […] every 30 s. Whole-cell patch clamp recordings were performed at 22-25° C. using an IX50 inverted microscope equipped with epifluorescence optics for GFP detection (Olympus), a Multiclamp 700 A Amplifier, a Digidata 1300 Analogue/Digital converter and pClamp9 software (Axon Instruments). Leak and liquid junction potentials (<4 mV) were not compensated for when generating current-voltage relationships. For intracellular drug application, the tip of the recording electrode was first filled with drug-free intracellular solution, the electrode was then back-filled with intracellular solution containing TEA (20 mM), TA279 (5 mM) or JC638.2α (0.5 mM). Cells were held at −80 mV and subjected to 2 sec test pulses from −60 mV to +60 mV in 10 mV increments, followed by a 1 sec tail pulse to −30 mV. After an initial recording which we denoted time 0, a second recording was performed after 5 minutes.
Data analysis: Current-voltage relationships were obtained by measuring peak current during depolarizing pulses. Inhibition constants for DABCO blockers were calculated after generating a dose response curve by fitting with a logistic dose-response function y=A2+[A1−A2/1+(x/x0)^p], where A1 is the maximum response plateau, A2 is the minimum response plateau, x is drug concentrator, x0 is the IC50, and p the Hill slope. Data analysis was performed using CLAMPFIT 9 (Axon Instruments, Foster City, Calif.) and tabulated in Excel 5.0. Graphs were generated using Origin 6.1. Data are expressed as mean±SEM, with n specifying the number of independent experiments. Statistical significance was assessed by one-way ANOVA with p<0.05 being indicative of significance.

SMILES: C(CCCCC[N+]12CCN(CC1)CC2)CCCC[N+]12CCN(CC1)CC2 [JC279.3a, 1,10-[bis(4-aza-1-azoniabicyclo[2.2.2]octanyl)]decane]
block or opening of Δ1-28 Kv3.4 (Δ1-28 Kv3.4 channels): opener
voltage dependence of block or opening of Kv3.4 (Δ1-28 Kv3.4 channels; attenuated at more depolarized voltages): voltage-dependent

current inhibition, administered alone (Kv2.1-K356C): 56±3%
SMILES: C[N+](C)(C)CCSS(C)(=O)=O [MTSET, reference compound]

SMILES: CC[N+](CC)(CC)CC [TEA, tetraethylammonium, reference compound]
block on intracellular application ([1]; after 5 minutes): ~88% and 80%
block on intracellular application ([1]; time 0): ~85% and 70%
